Measured values reported in article PMC10844371 (Diabetologia, 2023).

Columns and labels:
[1] = tested on: isolated mouse pancreatic islets; assay type: cell-based
Description: Experiments were conducted as previously described. Islets were incubated in 0.3 ml EC1 or EC2 media (ESM Table 2) supplemented with glucose and other reagents as indicated.
(§1) All data are reported, unless otherwise stated, as mean values ± SEM for the indicated number of experiments using islets from multiple mice. For hormone release studies, islets were isolated and pooled from 4–16 mice. These islets were then subdivided into groups of 12–20 size-matched islets. Each unique set of islets counted as an experiment with the experiments repeated on 2–4 days. Similarly, each unique group of human islets was treated as an experiment. […] In the Ca^2+ imaging and granule docking experiment, each cell represents an experiment making sure that cells from multiple donors/animals were used. For the in vivo experiments and the perfused pancreas, each mouse count represents an experiment. For two groupings, a t test was conducted. For multiple comparisons, one-way ANOVA was conducted. All statistical tests were performed using Graphpad Prism (version 9.1.0; graphpad.com).

human pancreatic islets = test: Glucagon secretion in human islets (ELISA); assay type: cell-based; settings: human islets, 10 pmol/l, 1 mmol/l glucose
Description: Human pancreatic islets were isolated (with ethical approval and clinical consent) as previously described. Islets from the pancreases of 18 healthy donors and five donors with type 2 diabetes were used (see electronic supplementary material [ESM] Table 1; ESM Human islets checklist).
(§2) Mouse islets were used acutely, except for studies with PTX, wherein islets were treated overnight with the toxin. Human islets were maintained in culture for up to 48 h in RPMI medium containing 10% (vol./vol.) FCS, 1% (vol./vol.) penicillin/streptomycin and 5 mmol/l glucose. Experiments were conducted as previously described. Islets were incubated in 0.3 ml EC1 or EC2 media (ESM Table 2) supplemented with glucose and other reagents as indicated. Glucagon was determined by ELISA (Mercodia).
as §1, with “graphpad.com). It was ascertained that the data were normally distributed.” for “graphpad.com).”

[2] = tested on: isolated mouse pancreatic islets; test: Somatostatin secretion in isolated mouse islets (RIA); assay type: cell-based; settings: 1 mmol/l glucose, groups of 20 islets
Description: as §2
(§3) Insulin and somatostatin were determined by RIA (Millipore and Diasource ImmunoAssays, respectively) as described previously. In these experiments, rates of release are expressed as % of contents unless otherwise indicated.

[3] = tested on: isolated mouse pancreatic islets; test: Insulin secretion in isolated mouse islets (RIA); assay type: cell-based
Description: as §2, with “indicated.” for “indicated. Glucagon was determined by ELISA (Mercodia).”
as §3

[4] = tested on: PKA activity in alpha cells; test: PKA activity measurements (AKAR3) in alpha cells in intact islets; assay type: cell-based, mouse
Description: PKA activity was measured using AKAR3 as previously described. The cells were continuously superfused at a rate of 60 μl/min with EC4 (ESM Table 2).

mouse alpha cells = test: TIRF imaging of docked secretory granules in mouse alpha cells; assay type: cell-based
Description: Cells were imaged using total internal reflection fluorescence (TIRF) microscopy (AxioObserver Z1 with a ×100/1.45 objective [Carl Zeiss] and a diode-pumped solid state laser at 491 nm). For these measurements, EC1 was used (ESM Table 2). Images from cells infected with preproglucagon promoter (PPPG)-neuropeptide Y (NPY)-enhanced green fluorescent protein (EGFP) virus were recorded using an electron-multiplying charge-coupled device camera (Photometrics Evolve) using ZEN blue. Single images of cells were acquired to measure the number of docked granules. Incoming and outgoing granules during visiting, docking and undocking were determined from multiple frame movies as described previously. Candidate docking or undocking events were found manually as granules that approached the TIRF field with an axial component and became laterally confined for at least two frames. We defined docking as granules that remained confined for at least 1 min. Visitors were those granules that remained for <1 min after appearing at the plasma membrane. Undocking was defined as slow movement of a previously docked granule away from its docking site. Granule density was calculated using a script that used the built-in ‘find maxima’ function in ImageJ (version 1.53c; http://rsbweb.nih.gov/ij) for spot detection.

P/Q-type Ca^2+ channels = test: [Ca2+]i imaging of depolarisation-evoked Ca2+ entry in alpha cells (Gcg-GCaMP6f islets); assay type: cell-based, mouse; settings: in the presence of GLP-1(9–36) 10 pmol/l; p=0.26
Description: For live-cell cytoplasmic free Ca^2+ concentration ([Ca^2+]i) imaging experiments, Gcg-GCaMP6f islets were immobilised to a poly-L-lysine-coated coverslip fixed in a custom-built imaging chamber filled with EC3 (ESM Table 2). [Ca^2+]i was measured in islets from mice expressing GCaMP6f in alpha cells. [Ca^2+]i imaging experiments were then performed using an inverted LSM 510 confocal microscope (Zeiss) controlled with ZEN Black (Zeiss), using a ×40/1.3 oil immersion objective. Time-lapse images were collected every 0.98 s with a frame size of 256×256 pixels, with the bath solution (EC3) perfused at a rate of 0.4 ml/min and heated to 37°C. GCaMP6f was excited by an argon laser (488 nm) and emission was collected at 510 nm.
[Ca^2+]i imaging videos were analysed using the Fiji imaging processing package. The mean fluorescence (F) of each region of interest was normalised to baseline signal (F0) and expressed as F/F0 before exporting into ClampFit (version 10.7; Molecular Devices, CA, USA), where baseline was corrected and AUC was calculated.

CC[C@H](C)[C@H](NC(=O)[C@H](Cc1ccccc1)NC(=O)[C@H](CCC(=O)O)NC(=O)[C@H](CCCCN)NC(=O)[C@H](C)NC(=O)[C@H](C)NC(=O)[C@H](CCC(N)=O)NC(=O)CNC(=O)[C@H](CCC(=O)O)NC(=O)[C@H](CC(C)C)NC(=O)[C@H](Cc1ccc(O)cc1)NC(=O)[C@H](CO)NC(=O)[C@H](CO)NC(=O)[C@@H](NC(=O)[C@H](CC(=O)O)NC(=O)[C@H](CO)NC(=O)[C@@H](NC(=O)[C@H](Cc1ccccc1)NC(=O)[C@@H](NC(=O)CNC(=O)[C@H](CCC(=O)O)NC(=O)[C@H](C)NC(=O)[C@@H](N)Cc1c[nH]cn1)[C@@H](C)O)[C@@H](C)O)C(C)C)C(=O)N[C@@H](C)C(=O)N[C@@H](Cc1c[nH]c2ccccc12)C(=O)N[C@@H](CC(C)C)C(=O)N[C@H](C(=O)N[C@@H](CCCCN)C(=O)NCC(=O)N[C@@H](CCCNC(=N)N)C(N)=O)C(C)C [GLP-1(7–36)]
inhibitory effect on glucagon secretion in Glp1r−/− mouse islets ([1]; 10 pmol/l, Glp1r−/− islets, 1 mmol/l glucose): persisted
inhibitory effect on glucagon secretion in Glp1r−/− islets after PTX ([1]; 10 pmol/l, Glp1r−/− islets, PTX pretreatment): abolished
change of the inhibitory effect on glucagon secretion by exendin(9–39) ([1]; 10 pmol/l, exendin(9–39) 1 μmol/l): reduced
glucagonostatic effect in the presence of exendin(9–39) ([1]; 10 pmol/l, exendin(9–39) 1 μmol/l, 1 mmol/l glucose): retained their glucagonostatic effect
glucagonostatic effect in the presence of the PKA inhibitor 8-Br-Rp-cAMPS ([1]; 8-Br-Rp-cAMPS 10 μmol/l, 1 mmol/l glucose): not affected
glucagonostatic effect remaining with exendin(9–39), in the presence of sitagliptin ([1]; exendin(9–39) plus DPP-4 inhibitor sitagliptin): abolished
inhibition of glucagon secretion ([1]; islets cultured overnight without PTX, 1 mmol/l glucose): ~ 50%
inhibitory effect on glucagon secretion after PTX pretreatment ([1]; overnight PTX 100 ng/ml, 1 mmol/l glucose): unaffected
IC50 ([1]; read-out: half-maximal inhibitory concentration (IC50) for inhibition of glucagon secretion, isolated mouse islets, 1 mmol/l glucose, groups of 12 islets from 4–6 mice, glucagon ELISA): 2.5 pM
inhibition of glucagon secretion (human pancreatic islets): ~ 50%
concentration at which stimulation of somatostatin secretion was already detectable [2]: 10 pmol/L
insulinotropic effect in Glp1r−/− mouse islets ([3]; Glp1r−/− islets): lost
concentrations at which stimulation of insulin secretion attained statistical significance ([3]; mouse islets, 1 mmol/l glucose): ≥ 100 pmol/L
effect on PKA activity in alpha cells ([4]; 10 pmol/l): no inhibitory effect
effect on cAMP/PKA activity in alpha cells ([4]; 10,000 pmol/l): increased cAMP/PKA activity

CCCOc1ccc(Br)cc1-c1cc(-c2ccc(Cl)cc2)[nH]c1-c1ccncc1 [L-168049]
effect on the glucagonostatic effect of GLP-1(9–36) ([1]; mouse islets, L-168049 100 nmol/l, GLP-1(9–36) 10 pmol/l): abolished

CC1=NS(=O)(=O)c2cc(Cl)ccc2N1 [diazoxide]
reduction of submembrane granule density (mouse alpha cells; 200 μmol/l): ~ 40%

CC(C)NCC(O)c1ccc(O)c(O)c1 (stereo not drawn) [isoprenaline]
stimulation of glucagon secretion ([1]; mouse islets, 1 mmol/l glucose): > 2.2 fold

ω-agatoxin
effect on glucagon secretion ([1]; 200 nmol/l, 1 mmol/l glucose): inhibited glucagon secretion nearly as strongly as GLP-1(9–36)
reduction of the number of docked granules (mouse alpha cells; 200 nmol/l): to the same extent as GLP-1(9–36)
further change of Ca2+ entry on addition in the presence of GLP-1(9–36) (P/Q-type Ca^2+ channels): −8±4%
